Assay results: patent publication US20160075682A1, “INHIBITORS OF NICOTINAMIDE PHOSPHORIBOSYLTRANSFERASE, COMPOSITIONS, PRODUCTS AND USES THEREOF” (UNIVERSITÀ DEGLI STUDI DEL PIEMONTE ORIENTALE "AMEDEO …, priority 2013, published 2016)

Experiments:
[1] = system: SH-SY5Y, HeLa; assay: MTT cell proliferation assay and trypan blue count (cell viability); assay type: cell-based; conditions: cells treated for 48 and 72 hours; read-out: IC50 values (inhibition of cellular proliferation, MTT assay and trypan blue assay)
Description: Cell based assays were used to evaluate the possible cytotoxic effects of some compounds. To measure cytotoxic effects two different methods were used, a MTT cell proliferation assay and trypan blue count.
The Trypan blue assay is used to determine the number of viable cells present in a cell suspension. […] Briefly, 8×10^5 cells (SH-SY5Y, HeLa; obtained from ATCC, LGC standards, Sesto San Giovanni) were seeded in 24-well plates and treated for 48 and 72 hours. After the treatments, cells were stained with trypan blue and counted.
To analyze cell viability was used the colorimetric 3-(4,5-dimethylthiazol-2-yl)-2,5-diphenyltetrazolium bromide (MTT) method. The assay is based on the cleavage of the yellow tetrazolium salt MTT to purple formazan crystals by metabolic active cells. Since reduction of MTT can only occur in metabolically active cells, the level of activity is a measure of the viability of cells and conversely the cytotoxic effects of various treatments. Briefly, 8×10^5 cells (SH-SY5Y, code number CRL-2266; and HeLa, code number CCL-2) were seeded in 24-well plates and treated for 48 and 72 hours. Compounds were dissolved in DMSO and were added to the cells to give a final DMSO concentration no greater than 0.5%. Cells were washed once in Locke buffer and 300 μl of MTT (250 μg/ml in Locke buffer) were added before returning the cells to the incubator for 1 h to allow the formation of the purple formazan crystals. After 1 h, 600 μl of isopropanol/0.1 M HCl were added to each well, and the absorbance was read at 570 nm in a plate reader (Victor3V, PerkinElmer Life Sciences). For some compounds a dose response curve and IC50 for the effects on cell viability and proliferation were calculated. Cell lines used were originally purchased from ATCC (LGC standards. Sesto San Giovanni).
To evaluate the ability of each compound to inhibit cellular proliferation, cells were seeded in 24-well plates and treated for 48 and 72 hours. After the treatments the MTT assay and trypan blue assay were performed.

[2] = Microsomal stability with rat liver microsomes; assay type: in vitro ADME, Male Wistar rat; conditions: 50 μM substrate, 1.0 mg/mL protein, 60 minutes at 37° C., pH 7.4
Description: (§1) Male Wistar rat liver microsomes (RLM), (protein concentration: 25 mg/ml determined using the Omura and Sato method, total P450: 0.64 nmol/mg protein) were used throughout this study and prepared using an internal protocol. The cryopreserved pooled human liver microsomes (HLM), (pooled mixed sex, ten individual donors, protein concentration: 20 mg/ml, total P450: 0.36 nmol/mg) were purchased from BD Gentest™ (Woburn, Mass.) and used throughout this study.
(§2) The standard incubation mixture (1 ml final volume), was carried out in a 50 mM TRIS (Tris[hydroxymethyl]aminomethane) buffer (pH 7.4) containing 10 μl of acetonitrile (1% of total volume), and 50 μM substrate compounds. After pre-equilibration of the mixture, an appropriate volume of RLM or HLM suspension was added to give a final protein concentration of 1.0 mg/mL. The mixture was shaken for 60 minutes at 37° C. Control incubations were carried out without microsomes. Each incubation was stopped by addition of 1 ml ice-cold acetonitrile, vortexed and centrifuged at 11,000 r.p.m. for 5 min. The supernatants were analysed by LC-DAD-UV and LC-ESI-MS systems to determine the metabolic stability (% substrate residue) and the structure of metabolites respectively (Table 1).
(§3) A Shimadzu HPLC system (Shimadzu, Kyoto, Japan), consisting of two LC-10AD Vp module pumps, an SLC-10A Vp system controller, an SIL-10AD Vp autosampler, and a DGU-14-A on-line degasser were used for the analysis. Chromatographic separation was performed on a Phenomenex Luna C18(2) 150×4.6 mm (5 μm) (Phenomenex srl, Castel Bolognese, Italy) as a stationary phase protected by a C18 SecurityGuard (Phenomenex srl, Castel Bolognese, Italy). The SPD-M10Avp photodiode array detector was used to detect the analytes. LC-Solution 1.24 software was used to process the chromatograms. Aliquots (20 μL) of supernatants obtained from incubations were injected onto the HPLC system and eluted with a mobile phase (flow rate 1.0 mL/min) consisting of a A: 0.5% formic acid solution, B: acetonitrile/methanol 8:2. A Thermo Finningan LCQ Deca XP plus system equipped with a quaternary pump, a Surveyor AS autosampler, a Surveyor photodiode array detector and a vacuum degasser was used for LC/MS analyses (Thermo Electron Corporation, Waltham, Mass.). All the chromatographic separations were performed on a Phenomenex Luna C18(2)150×2 mm (4 μm) (kept at a 35° C.) as a stationary phase protected by a C18 SecurityGuard (Phenomenex srl, Castel Bolognese, Italy). Aliquots (2.0 μl) of supernatants obtained from incubations were injected onto the system and eluted with a mobile phase (flow rate 0.2 ml/min) consisting of a A: 0.2% formic acid solution, B: acetonitrile/methanol 8:2. The eluate was injected into the electrospray ion source (ESI) and MS and MS^n spectra were acquired and processed using Xcalibur® software. The operating conditions on the ion trap mass spectrometer were as follows: Positive mode, spray voltage, 5.30 kV; source current, 80 μA; capillary temperature, 350° C.; capillary voltage, 21.00 V; tube lens offset, 15.00 V; multipole 1 offset, −5.75 V; multipole 2 offset, −9.00 V; sheath gas flow (N2), 55 Auxiliary Units.

[3] = Microsomal stability with human liver microsomes; assay type: in vitro ADME; conditions: 50 μM substrate, 1.0 mg/mL protein, 60 minutes at 37° C., pH 7.4
Description: as §1, §2, §3

[4] = Metabolites generated from hydrolyses in RLM or HLM incubations (LC-ESI-MS); assay type: in vitro ADME, rat, human; conditions: RLM or HLM incubation, 60 minutes at 37° C.
Description: as §1, §2, §3

[5] = molecular target: T1, NAMPT (Homo sapiens, UniProt P43490); assay: Direct inhibition of NAMPT enzymatic activity (Cyclex NAMPT colorimetric Assay Kit); assay type: biochemical; conditions: as assessed with a cycling assay
T1 construct: endogenous in cells; host or cells: SH-SY5Y and HeLa
T1 sequence (P43490 whole entry): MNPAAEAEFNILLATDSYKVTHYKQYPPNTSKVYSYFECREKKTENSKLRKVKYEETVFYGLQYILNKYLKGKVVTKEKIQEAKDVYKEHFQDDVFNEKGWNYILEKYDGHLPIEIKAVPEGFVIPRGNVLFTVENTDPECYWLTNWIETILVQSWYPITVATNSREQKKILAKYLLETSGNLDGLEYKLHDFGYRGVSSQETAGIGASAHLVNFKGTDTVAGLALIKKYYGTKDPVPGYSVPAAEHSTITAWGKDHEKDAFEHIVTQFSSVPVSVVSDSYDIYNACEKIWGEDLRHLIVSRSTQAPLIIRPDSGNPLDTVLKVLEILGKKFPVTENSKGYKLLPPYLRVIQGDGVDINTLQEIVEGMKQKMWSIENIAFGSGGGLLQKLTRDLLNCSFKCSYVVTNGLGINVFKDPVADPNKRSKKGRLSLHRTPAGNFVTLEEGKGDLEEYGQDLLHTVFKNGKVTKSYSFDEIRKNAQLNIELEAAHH
Description: Determination of the direct activity of compounds on NAMPT was performed using a commercial kit, Cyclex NAMPT colorimetric Assay Kit.

| IC50 [1] [nM] | RLM stability % substrate residue (area peak) [2] [%] | HLM stability % substrate residue (area peak) [3] [%] | Metabolites generated from hydrolyses [4] | inhibition of the enzymatic activity of NAMPT [5] | melting point [°C] | SMILES |
| --- | --- | --- | --- | --- | --- | --- |
| < 300 | >97 | >99 | no |  |  | c1ccc(-c2ccccc2OCCc2ccc(Cn3cc(-c4cccnc4)nn3)cc2)cc1 [3-(1-(4-(2-([1,1′-biphenyl]-2-yloxy)ethyl)benzyl)-1H-1,2,3-triazol-4-yl)pyridine] |
| < 300 | >95 | >98 | yes (traces) | able to inhibit |  | O=C(NCCCCCCCn1cc(-c2cccnc2)nn1)Nc1ccccc1-c1ccccc1 [1-([1,1′-biphenyl]-2-yl)-3-(7-(4-(pyridin-3-yl)-1H-1,2,3-triazol-1-yl)heptyl)urea] |
| < 300 | >99 | >96 | no | able to inhibit |  | O=C(NCCCCCCCn1cc(-c2cccnc2)nn1)c1ccccc1-c1cccnc1 [2-(pyridin-3-yl)-N-(7-(4-(pyridin-3-yl)-1H-1,2,3-triazol-1-yl)heptyl)benzamide] |
| < 300 |  |  |  | able to inhibit |  | Cc1ccccc1-c1ccccc1C(=O)NCCCCCCCn1cc(-c2cccnc2)nn1 [2′-methyl-N-(7-(4-(pyridin-3-yl)-1H-1,2,3-triazol-1-yl)heptyl)-[1,1′-biphenyl]-2-carboxamide] |
| < 300 | >99 | >99 | no |  |  | O=S(=O)(NCCCCCCCCn1cc(-c2cccnc2)nn1)c1ccccc1-c1ccccc1 [N-(8-(4-(pyridin-3-yl)-1H-1,2,3-triazol-1-yl)octyl) biphenyl-2-sulfonamide] |
| < 300 | >99 | >98 | no |  |  | O=C(Nc1ccc(CCCn2cc(-c3cccnc3)nn2)cc1)c1ccccc1-c1ccccc1 [N-(4-(3-(4-(pyridin-3-yl)-1H-1,2,3-triazol-1-yl)propyl)phenyl)-[1,1′-biphenyl]-2-carboxamide] |
| < 300 | >95 | >99 | no | able to inhibit |  | c1cncc(-c2cn(CCCCCCOc3ccccc3-c3cccnc3)nn2)c1 [3-(2-((6-(4-(pyridin-3-yl)-1H-1,2,3-triazol-1-yl)hexyl)oxy)phenyl)pyridine] |
| < 300 | >99 | >99 | no |  |  | O=C(NCCc1ccc(Cn2cc(-c3cccnc3)nn2)cc1)Nc1ccccc1-c1ccccc1 [1-([1,1′-biphenyl]2-yl)-3-(4-((4-(pyridin-3-yl)-1H-1,2,3-triazol-1-yl)methyl)phenethyl)urea] |
| < 300 | >99 | >99 | no |  |  | c1ccc(-c2ccccc2-c2cn(CCCCCCCn3cc(-c4cccnc4)nn3)nn2)cc1 [3-(1-(7-(4-([1,1′-byphenyl]-2-yl)-1H-1,2,3-triazol-1-yl)heptyl)-1H-1,2,3-triazol-4-yl)pyridine] |
| < 300 |  |  |  | able to inhibit |  | c1ccc(-c2ccccc2OCCCCCCCCn2cc(-c3cccnc3)nn2)cc1 [3-(1-(8-([1,1′-biphenyl]-2-yloxy)octyl)-1H-1,2,3-triazol-4-yl)pyridine] |
| < 300 |  |  |  | able to inhibit |  | O=C(Nc1ccccc1-c1ccccc1)OCCCCCCn1cc(-c2cccnc2)nn1 [6-(4-(pyridin-3-yl)-1H-1,2,3-triazol-1-yl)hexyl[1,1′-biphenyl]-2-ylcarbamate] |
| < 300 | >92 | >98 | no |  | 164 to 165 | c1ccc(-c2ccccc2OCCCc2ccc(-n3cc(-c4cccnc4)nn3)cc2)cc1 [3-(1-(4-(3-([1,1′-biphenyl]-2-yloxy)propyl)phenyl)-1H-1,2,3-triazol-4-yl)pyridine] |
| < 300 | >99 | >99 | no |  |  | O=C(NCCc1ccc(Cn2cc(-c3cccnc3)nn2)cc1)c1ccccc1-c1ccccc1 [N-(4-((4-(pyridin-3-yl)-1H-1,2,3-triazol-1-yl)methyl)phenethyl)[1,1′-biphenyl]-2-carboxamide] |
| < 300 |  |  |  | able to inhibit |  | O=C(NCCCCCCn1cc(-c2cccnc2)nn1)Nc1ccccc1-c1ccccc1 [1-([1,1′-biphenyl]-2-yl)-3-(6-(4-(pyridin-3-yl)-1H-1,2,3-triazol-1-yl)hexyl)urea] |
